Source: patent publication US20190284129A1, “LIPID COMPOUNDS AND COMPOSITIONS AND THEIR OPTHALMIC USE” (BIOZEP AS, priority 2015, published 2019)

Columns and labels:
Type in all cases: cell-based
neuroblastoma cells = experiment: mitochondrial DNA damage in neuroblastoma cells (RT-qPCR, TaqI cleavage); conditions: 10 μM compound, 24 hours, high glucose (20 mM); FIG. 3
Method: In this study, neuroblastoma cells were cultivated at near confluency (50-75%) in DMEM/F12/10% serum high glucose (20 mM) supplied with 10 μM BIZ-101 or BIZ-105 for 24 hours prior to analyses. These conditions readily induce mtDNA damage that is representative of that accumulating during aging as the result of age-associated oxidative stress.
For DNA damage analyses, cells were washed, and DNA isolated using Qiagen Blood&Tissue DNA isolation kit. DNA damage level was analyzed by a RT-qPCR method based on the ability of DNA lesions to inhibit restriction enzyme cleavage, as described previously (http://www.ncbi.nlm.nih.gov/pubmed/25631007) using primers 5′-[…]-3′ and 5′-[…]-3′ (sense and anti sense, respectively). Briefly, genomic DNA (6 ng) was treated with 1 U TaqI for 15 min at 65° C. DNA damage frequency was calculated as 2exp−(ctTaql−ctnt), where ctTaql and ctnt represent CT values of TaqI-treated and non-treated genomic DNA, respectively.

NF-κB pathway = experiment: NF-κB luciferase reporter assay in NF-κB Reporter-HEK293 cells, TNFa stimulated; conditions: FIG. 5
Source text: The NF-κB reporter (luc)-HEK293 cell line is designed for monitoring the nuclear factor Kappa B (NF-κB) signal transduction pathways. It contains a firefly luciferase gene driven by four copies of NF-κB response element located upstream of the minimal TATA promoter. After activation by pro-inflammatory cytokines or stimulants of lymphokine receptors, endogenous NF-κB transcription factors bind to the DNA response elements, inducing transcription of the luciferase reporter gene.
NF-κB Reporter-HEK293 cells were cultured in MEM medium with 10% FBS, 1% non-essential amino acids, 1 mM Na-pyruvate, 1% Penn-strep, and 100 µg/ml of Hygromycin B.
To perform the NF-κB luciferase reporter assay, NF-κB Reporter-HEK293 cells were seeded at 40,000 cells per well into white clear-bottom 96-well microplate in 45 μl of growth medium without Hygromycin B. Cells were incubated at 37° C. and 5% CO2 overnight to allow them to recover and reattach. The following day a series of dilutions of compounds were made in assay medium (MEM medium with 0.5% FBS, 1% non-essential amino acids, 1 mM Na-pyruvate, 1% Penn-strep). The medium was removed from the wells and 45 μl of diluted compound was added to the cells. Assay medium with DMSO was added to the untreated control wells and cell-free control wells. The final concentration of DMSO was 0.25%. The cells were incubated overnight at 37° C. in CO2 incubator. […]
After treatment, cells were then lysed and a luciferase assay was performed using the ONE-Step luciferase assay system. […] Luminescence was measured using a luminometer (BioTek Synergy™ 2 microplate reader).
Reporter assays were performed in triplicate at each concentration. The luminescence intensity data were analyzed using the computer software, Graphpad Prism. In the absence of the compound, the luminescence intensity (Lt) in each data set was defined as 100%. In the absence of cells, the luminescence intensity (Lb) in each data set was defined as 0%. The percent luminescence in the presence of each compound was calculated according to the following equation: % Luminescence=(L−Lb)/(Lt−Lb), where L=the luminescence intensity in the presence of the compound, Lb=the luminescence intensity in the absence of cells, and Lt=the luminescence intensity in the absence of the compound. The values of % luminescence versus a series of compound concentrations were then plotted using non-linear regression analysis of a Sigmoidal dose-response curve generated with the equation Y=B+(T B)/1+10^((Log EC50-X)×Hill Slope), where Y=percent luminescence, B=minimum percent luminescence, T=maximum percent luminescence, X=logarithm of compound and Hill Slope=slope factor or Hill coefficient. The IC50 value was determined by the concentration causing a half-maximal percent activity.

ARPE-19 cells = experiment: oxidative stress (tert-butyl hydroperoxide) cytolysis assay in ARPE-19 retinal pigment epithelial cells
Method: In order to evaluate the potential of BIZ-101 to protective the eye from oxidative stress damage the compound was tested in a cell based assay. Oxidative stress was induced in an ARPE-19 cell line using tert-butyl hydroperoxide at different concentrations. The cellular viability was kinetically monitored and measured by analysing the plasma membrane integrity based on the incorporation of a non-permeant and fluorescent DNA intercalating agent that selectively stain cytolytic cells with comprised plasma membranes.
(§1) The ARPE-19 cell line was seeded and cultured in DMEM-F12 medium+10% SVF for 24 hrs in a 96 well plate. Cells were pre-treated or not with either fenofibric acid (25 μM) or compound BIZ-101 (10 μM) during this 24 hr period. After 24 hrs, the different concentrations of t-butyl hydroperoxide were added in the presence of a fluorescent DNA intercalating agent for the following monitoring. Live content time-lapse imaging was performed with a sampling rate of 1 image every 2 hr over a 96 hrs period. The number of fluorescent/cytolytic cells were counted and reported during the experiment. The treatment conditions were tested in one experiment session in a triplicate format.
Fenofibric acid was used at 25 μM and was ordered from Sigma Aldrich. The day of the pre-treatment, a 25 mM stock solution of fenofibric acid was prepared in DMSO and diluted in the complete culture medium at 25 μM. 100 μL of this solution or 100 μL of complete culture medium+0.1% DMSO replaced the 100 μL of the complete culture medium already present in the well. The day of the treatment with t-butyl hydroperoxide, a 2 times concentrated solution of fenofibric acid was freshly diluted in the complete culture medium and 50 μL of this solution or 50 μL of complete culture medium+0.2% DMSO were added to the 100 μL of the culture medium already present in the well.
Compound BIZ-101 was tested at a final concentration of 10 μM. A 10 mM predilution was prepared in DMSO from a 10 mM stock solution. The 10 mM solution of BIZ 101 was diluted in the complete culture medium at 10 μM. 100 μL, of this solution or 100 μL of the complete culture medium+0.1% DMSO replaced the 100 μL, of the complete culture medium already present in the well. The day of the treatment with t-butyl hydroperoxide, a 2 times concentrated solution of BIZ 101 was freshly diluted in the complete culture medium and 50 μL of this solution or 50 μL of complete culture medium+0.2% DMSO were added to the 100 μL of the culture medium already present in the well.
Preparation of the tert-butyl hydroperoxide [tBHP] solution: 0, 0.01 mM, 0.03 mM, 0.1 mM, 0.3 mM, 1 mM, 3 mM and 10 mM. A 4 times concentrated solution of tBHP was freshly diluted in the complete culture medium for each of the concentrations to be tested. 50 μL of the 4 times concentrated solution was added to the 150 μL of the cultured medium.
In order to evaluate the potential of BIZ-102 to protect the eye from oxidative stress damage the compound was tested in a cell based assay similar to Example 24 with the following changes. The oxidative stress in the ARPE-19 cell line was induced by using 3 different concentrations of tBHP: 10 μM, 30 μM and 100 μM and BIZ-102 was tested in 2 different concentrations: 1 μM and 10 μM.
as §1, with “with” for “with either fenofibric acid (25 μM) or”, “BIZ-102 (1 μM and 10” for “BIZ-101 (10”
Compound BIZ-102 was tested at a final concentration of 1 and 10 μM. […]

human PPARα = molecular target: T1, human PPARα (Homo sapiens, UniProt Q07869); experiment: stable reporter HeLa cell line, GAL4-PPARα ligand activity; conditions: 5 μM compound, relative to 1 μM GW7647; FIG. 6
T1 construct: expressed in transfected cells
T1 sequence (Q07869 239-466 limits assumed): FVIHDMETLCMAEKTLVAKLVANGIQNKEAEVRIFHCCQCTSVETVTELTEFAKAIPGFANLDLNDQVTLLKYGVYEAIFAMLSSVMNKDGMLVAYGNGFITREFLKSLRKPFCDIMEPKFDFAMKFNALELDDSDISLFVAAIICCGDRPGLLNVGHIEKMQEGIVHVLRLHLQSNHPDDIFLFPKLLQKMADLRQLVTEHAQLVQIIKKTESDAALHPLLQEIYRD
Source text: (§2) To screen the human PPARα, PPARδ and PPARγ ligand activity of the compounds a stable reporter cell line was used (HeLa cell line). The stable reporter cell line express respectively a chimeric protein containing the ligand binding domain (LBD) of human PPARα, human PPARδ and human PPARγ fused to the yeast transactivator GAL4 DNA binding domain (DBD). The luciferase (Luc) reporter gene is driven by a pentamer of the GAL4 recognition sequence in front of a β-globin promoter. The use of GAL4-PPARα, GAL4-PPARδ and GAL4-PPARγ chimeric receptors allows for elimination of background activity from endogenous receptors and quantification of relative activity across the three PPAR subtypes with the same reporter gene. […] Luciferase activity was measured by a luminometer and luciferase activity was expressed as relative light units (RLU).
Day 1: Seed 96—well plate with PPAR cells. Cell appearance was checked using optical microscopy. Cells were cultivated at confluency (80-100%).
Day 2: The test articles dissolved in DMSO were added to the cells. The controls (positive controls and the solvent control) were included in each individual plate. […]
Day 3: To determine the PPAR subtype activity of the tested compounds, the percentage of PPAR ligand activity was calculated for each tested compound as follows: […]

human PPARγ = molecular target: T2, human PPARγ (Homo sapiens, UniProt P37231); experiment: stable reporter HeLa cell line, GAL4-PPARγ ligand activity; conditions: 5 μM compound, relative to 1 μM BRL49653; FIG. 7
T2 construct: expressed in transfected cells
T2 sequence (P37231 238-503 limits assumed): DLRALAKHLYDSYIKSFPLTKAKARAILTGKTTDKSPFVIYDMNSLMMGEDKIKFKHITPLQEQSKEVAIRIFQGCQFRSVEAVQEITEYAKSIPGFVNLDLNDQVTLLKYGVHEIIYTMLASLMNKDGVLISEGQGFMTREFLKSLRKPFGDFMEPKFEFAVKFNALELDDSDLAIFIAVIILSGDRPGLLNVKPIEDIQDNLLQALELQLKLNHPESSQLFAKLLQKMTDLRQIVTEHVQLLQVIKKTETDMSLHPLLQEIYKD
Source text: as §2
Day 1: Seed 96—well plate with PPAR cells. Cell appearance was checked using optical microscopy. Cells were cultivated at confluency (80-100%). […]
Day 3: To determine the PPAR subtype activity of the tested compounds, the percentage of PPAR ligand activity was calculated for each tested compound as follows:
Percentage of PPARγ activity for the tested compound in 5 μM concentration=(RLUXcomp×100)/RLUBRL49653 where RLUBRL49653 is the luminescence measured from PPARγ cells incubated with 1 μM […] and expressed as Relative Light Units. […]

Row | SMILES | mtDNA damage (neuroblastoma cells) | dose dependence of inhibitory effect on the NF-κB pathway (NF-κB pathway) | complete inhibition of the NF-κB pathway (NF-κB pathway; at high concentration) | dose dependent cytotoxicity of tBHP (ARPE-19 cells; 6 hrs after addition of tBHP, 24 hr pre-treatment, fenofibric acid 25 μM, BIZ-101 10 μM) | protective effects against tBHP cytotoxicity (ARPE-19 cells; 24 hrs after addition of t-BHP, fenofibric acid 25 μM, BIZ-101 10 μM) | protective effect compared with fenofibric acid (ARPE-19 cells; BIZ-101 10 μM vs fenofibric acid 25 μM) | effect on retinal pigment epithelial cells during conditions of oxidative stress (ARPE-19 cells; overall conclusion) | PPARα activity (human PPARα) | PPARγ activation (human PPARγ)
1 | CC/C=C\C/C=C\C/C=C\C/C=C\C/C=C\CCC(CC)C(=O)O (stereo not shown) [BIZ-101, 2-ethyleicosa-(all-Z)-5,8,11,14,17-pentaenoic Acid] | reduced mtDNA damage | dose dependent | completely inhibited | slightly decreased | more efficient | much more potent | protective effect |  | 
2 | CC/C=C\C/C=C\C/C=C\C/C=C\C/C=C\C/C=C\CC(C)C(=O)O (stereo not shown) [BIZ-105, 2-methyldocosa-(all-Z)-4,7,10,13,16,19-hexaenoic Acid] | slightly reduced level of mtDNA damage |  |  |  |  |  |  |  | 
3 | CC/C=C\C/C=C\C/C=C\C/C=C\C/C=C\CCOCC(=O)O [BIZ-108, 3-oxa-(6Z,9Z,12Z,15Z,18Z)-heneicosa-(6,9,12,15,18)-pentaenoic Acid] |  |  |  |  |  |  |  | all compounds except BIZ-108 had potent activity | activated PPARγ except for the unsubstituted derivative BIZ-108
